Experimental data as given in patent US20040156742A1, “Synergistically-effective cyclohexylethan-1-yl ester mixtures as malodour counteractants as measured physiologically and psychometrically and methods for using same” (priority 2003, published 2004).

Experiment: Adaptation curves: % odour pulses correctly identified versus inter-stimulus interval (FIGS. 9C, 9D)
Type: in vivo, human
Conditions: pulse length 200 microseconds
Excerpt: as it applies to individual malodour molecules and individual fragrance molecules is set forth in Jacob et al., “Psychometric Evaluation of Responses to Pleasant and Malodour Stimulation in Human Subjects; Adaptation, Dose Response and Gender Differences”, Int. J. Psychophysiology, (2003). An additional discussion of the model as it applies to olfaction is set forth in Wang et al., “The correlation between physiological and psychological responses to odor stimulation in human subjects” Clinical Neurophysiology 113 (2002) 542-551 at page 546.
wherein Z is the percentage of odour pulses correctly identified;
Y is the pulse duration, or “pulse length” measured in units of microseconds; and
X is the inter-stimulus interval, “ISI”, measured in units of seconds.
FIG. 9C is a set of adaptation curves for the malodour, n-butyric acid, with the vertical axis being the “Z” axis, indicated by reference numeral 90C and the horizontal axis being the “X” axis indicated by reference numeral 92C. The graph indicated by reference numeral 97C and data points therefor 970C is for a pulse length of 35 microseconds. The graph indicated by reference numeral 96C and data points therefor 960C is for a pulse length of 50 microseconds. The graph indicated by reference numeral 95C and data points therefor 950C is for a pulse length of 75 microseconds. […]

Structure (SMILES) | percentage of odour pulses correctly identified, Z (point 990D on curve 93D: inter-stimulus interval X1=15 seconds, FIG. 9D) [%] | percentage of odour pulses correctly identified, Z (point 990C on curve 93C: inter-stimulus interval X1=12 seconds, FIG. 9C) [%]
CCCCCOC(C)=O [amyl acetate] | 54 | –
CCCC(=O)O [n-butyric acid] | – | 75
